In patent US7868026B2, “Therapeutic compounds” (Pfizer Inc., priority 2005, dated 2011) one finds IC50 and Ki data, which are given here for 26 molecules.

Where two headings read alike, the source gives them in different places. Some results are limits rather than exact numbers.

Common to all, as to assay type: biochemical
In test [1] the target is T1, CYP3A4 (Homo sapiens, UniProt P08684). The test can be described thus: Determination of IC50 against CYP3A4 by measurement of inhibition of testosterone metabolism (human liver microsomes, 6-β-OH-testosterone by LC-MS/MS). More on the design: 0.1 mg/mL human liver microsomes. As to conditions: read-out: IC50 (Testo.). The essentials: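 Human liver microsomes (0.1 mg/mL) incubated with 25 μM testosterone and 1 mM NADPH in 100 mM potassium phosphate, pH 7.4, for eight minutes. 6-β-OH-testosterone measured by LC-MS/MS in MRM mode against an internal standard and quantified from a metabolite standard curve.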

Test [2] concerns the target T1, CYP3A4. Kind of test: Determination of IC50 against CYP3A4 by measurement of inhibition of midazolam metabolism (human liver microsomes, 1-hydroxymidazolam by LC-MS/MS). More on the design: 0.1 mg/mL human liver microsomes. To be noted: 2 μM midazolam, 0.1 mg/mL human liver microsomes. The gist of the method:
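Human liver microsomes (0.1 mg/mL) incubated 8 min with 2 μM midazolam and 1 mM NADPH in 100 mM potassium phosphate, pH 7.4. 1-Hydroxymidazolam quantified by LC-MS/MS (MRM) as peak area ratio to internal standard against a metabolite standard curve.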
In general terms: Liver microsomes are a subcellular fraction often used to study metabolism.

The target in test [3] is T1, CYP3A4. Kind of test: Determination of compound Kiapp against recombinant CYP3A4 enzyme (BFC fluorescent substrate). The essentials:
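Recombinant CYP3A4 (5.5 or 8 nM, with or without b5 depending on source) pre-incubated with inhibitor ≥30 min at room temperature in 100 mM sodium phosphate pH 7.0, 5 mM TCEP, 2% DMF. Reaction started with 200 uM NADPH and 5 uM BFC; initial fluorescence rates over 5 min fitted to Morrison tight-binding (non-partial) or Szedlacsek (partial) equations for Kiapp.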

The mark [4] stands for this setting: Baculo. enzyme preparation, read-out: Kiapp (BFC, Baculo.).
Setting [5] is: Super. enzyme preparation, read-out: Kiapp (BFC, Super.).

T1 sequence (P08684 whole entry): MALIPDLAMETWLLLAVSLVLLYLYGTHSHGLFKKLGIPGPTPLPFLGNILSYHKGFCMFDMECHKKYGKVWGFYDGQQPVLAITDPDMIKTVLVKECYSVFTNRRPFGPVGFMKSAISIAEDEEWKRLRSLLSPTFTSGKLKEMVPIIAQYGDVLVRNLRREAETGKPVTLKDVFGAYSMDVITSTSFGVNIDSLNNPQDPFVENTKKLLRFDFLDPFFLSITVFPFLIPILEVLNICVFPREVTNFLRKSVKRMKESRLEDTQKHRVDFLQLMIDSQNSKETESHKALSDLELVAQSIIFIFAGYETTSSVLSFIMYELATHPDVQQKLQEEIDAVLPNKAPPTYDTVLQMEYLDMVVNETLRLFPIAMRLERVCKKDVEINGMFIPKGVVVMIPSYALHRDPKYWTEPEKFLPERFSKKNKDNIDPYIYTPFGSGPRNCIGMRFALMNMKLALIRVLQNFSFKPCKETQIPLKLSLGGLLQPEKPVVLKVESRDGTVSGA

As for `COc1cncc(NS(=O)(=O)c2ccccc2C(=O)NC2CCCC(C)C2)c1` (stereo not drawn) [Example 202, 2-{[(5-methoxypyridin-3-yl)amino]sulfonyl}-N-(3-methylcyclohexyl)benzamide], the values for the IC50 on CYP3A4 [1] and on CYP3A4 [2] were 7 nM and below 3 nM, respectively. For the same molecule, the Ki came out at 84.2 nM on CYP3A4 [3] (setting [4]) and 33.4 nM on CYP3A4 [3] (setting [5]).
Regarding `CCOc1cncc(NS(=O)(=O)c2ccccc2C(=O)N2CCCC2)c1` [Example 297, N-(5-ethoxypyridin-3-yl)-2-(pyrrolidin-1-ylcarbonyl)benzenesulfonamide], the concentration for half-maximal inhibition (IC50) (usually the concentration needed to halve the response being measured) is above 750 nM at CYP3A4 [1] and 170 nM on CYP3A4 [2]. The Ki on CYP3A4 [3] (setting [4]) came to 444 nM; on CYP3A4 [3] (setting [5]) it was 110 nM.
In the case of `COc1cncc(NS(=O)(=O)c2ccccc2C(=O)NC(C)C2CC2)c1` (stereo not drawn) [Example 311, N-(1-cyclopropylethyl)-2-{[(5-methoxypyridin-3-yl)amino]sulfonyl}benzamide], the half-maximal inhibitory concentration (IC50) on CYP3A4 [1] is 73 nM; on CYP3A4 [2], 34 nM. For the same molecule, the values for the Ki at CYP3A4 [3] (setting [4]) and at CYP3A4 [3] (setting [5]) were 209 nM and 76.2 nM, respectively.
In the same order, the values of `CCCCC(CO)NC(=O)c1ccccc1S(=O)(=O)Nc1cncc(OC)c1` (stereo not drawn) [Example 189, N-[1-(hydroxymethyl)pentyl]-2-{[(5-methoxypyridin-3-yl)amino]sulfonyl}benzamide] are 48 nM, 24 nM, 175 nM and 27.4 nM.
For `O=C(c1ccccc1S(=O)(=O)Nc1cncc(Br)c1)N1CCCCC1` [Example 392, N-(5-bromopyridin-3-yl)-2-(piperidin-1-ylcarbonyl)benzenesulfonamide] the same measures were 9 nM, 65 nM, above 1000 nM and 320 nM.
In the same order, the values of `O=C(NCc1ccc2ncccc2c1)c1ccccc1S(=O)(=O)Nc1cccnc1` [Example 89, 2-[(pyridin-3-ylamino)sulfonyl]-N-(quinolin-6-ylmethyl)benzamide] are 60 nM, 54 nM, above 1000 nM and 218 nM.
For the molecule `CCCCNC(=O)c1ccccc1S(=O)(=O)Nc1cnccc1OC` [Example 19, N-butyl-2-{[(4-methoxypyridin-3-yl)amino]sulfonyl}benzamide], the values for the IC50 on CYP3A4 [1] and on CYP3A4 [2] were 169 nM and 69 nM, respectively. In addition, at CYP3A4 [3] (setting [4]), the Ki came to 329 nM.
With `O=C(NCc1cccc(OC(F)F)c1)c1ccccc1S(=O)(=O)Nc1cccnc1` [Example 71, N-[3-(difluoromethoxy)benzyl]-2-[(pyridin-3-ylamino)sulfonyl]benzamide], the results for the half-maximal inhibitory concentration (IC50) on CYP3A4 [1] and at CYP3A4 [2] were below 3 nM and 29 nM, respectively. The Ki is 245 nM on CYP3A4 [3] (setting [4]) and 5.1 nM at CYP3A4 [3] (setting [5]).
In the same order, the values of `COc1cncc(NS(=O)(=O)c2ccccc2C(=O)N2CCCC2)c1` [Example 369, N-(5-methoxypyridin-3-yl)-2-(pyrrolidin-1-ylcarbonyl)benzenesulfonamide] are 181 nM, 98 nM, 350 nM and 53.2 nM.
In the same order, the values of `COc1cncc(NS(=O)(=O)c2ccccc2C(=O)NCC2CCCC2)c1` [Example 375, N-(cyclopentylmethyl)-2-{[(5-methoxypyridin-3-yl)amino]sulfonyl}benzamide] are 42 nM, 22 nM, 142 nM and 31.6 nM.
In the same order, the values of `COc1ccncc1NS(=O)(=O)c1ccccc1C(=O)NCCc1ccccc1Cl` [Example 220, N-[2-(2-chlorophenyl)ethyl]-2-{[(4-methoxypyridin-3-yl)amino]sulfonyl}benzamide] are 11 nM, 6 nM, 13.7 nM and 9.1 nM.
Regarding `O=C(NC1CCCCC1)c1ccccc1S(=O)(=O)Nc1cccnc1` [Example 8, N-cyclohexyl-2-[(pyridin-3-ylamino)sulfonyl]benzamide], the IC50 at CYP3A4 [1] came to 67 nM; at CYP3A4 [2] it was 63 nM. The values for the Ki at CYP3A4 [3] (setting [4]) and at CYP3A4 [3] (setting [5]) were 460 nM and 44.6 nM, respectively.
In the same order, the values of `CCOc1cncc(NS(=O)(=O)c2ccccc2C(=O)N(C)Cc2ccc(F)c(F)c2)c1` [Example 289, N-(3,4-difluorobenzyl)-2-{[(5-ethoxypyridin-3-yl)amino]sulfonyl}-N-methylbenzamide] are 27 nM, 15 nM, 5.9 nM and 4.97 nM.
Turning to `CCOc1ccncc1NS(=O)(=O)c1ccccc1C(=O)NC(C)(C)C` [Example 249, N-(tert-butyl)-2-{[(4-ethoxy-pyridin-3-yl)amino]sulfonyl} benzamide], the IC50 on CYP3A4 [1] amounted to 45 nM; on CYP3A4 [2], 28.5 nM. Moreover, the Ki on CYP3A4 [3] (setting [4]) came out at 60.1 nM; on CYP3A4 [3] (setting [5]), 37.7 nM.
For `COc1cncc(NS(=O)(=O)c2ccccc2C(=O)NCCc2ccccc2C)c1` [Example 388, 2-{[(5-methoxypyridin-3-yl)amino]sulfonyl}-N-[2-(2-methylphenyl)ethyl]benzamide] the same measures were 3 nM, 9 nM, 16 nM and below 1 nM.
For `COc1cncc(NS(=O)(=O)c2ccccc2C(=O)NCc2ccc(F)cc2Cl)c1` [Example 183, N-(2-chloro-4-fluorobenzyl)-2-{[(5-methoxypyridin-3-yl)amino]sulfonyl}benzamide] the same measures were 11 nM, 5 nM, 22.6 nM and 2 nM.
Take `CC(C)NC(=O)c1ccccc1S(=O)(=O)Nc1cccnc1` [Example 49, N-isopropyl-2-[(pyridin-3-ylamino)sulfonyl]benzamide]: the IC50 was above 500 nM on CYP3A4 [1] and 328 nM at CYP3A4 [2]. Besides, at CYP3A4 [3] (setting [4]), the Ki was above 1000 nM.
Take `COc1cncc(NS(=O)(=O)c2ccccc2C(=O)NCc2cccc(Cl)c2Cl)c1` [Example 185, N-(2,3-dichlorobenzyl)-2-{[(5-methoxypyridin-3-yl)amino]sulfonyl}benzamide]: the IC50 at CYP3A4 [1] is 10 nM; at CYP3A4 [2] it was 11 nM. Also, the figures for the Ki on CYP3A4 [3] (setting [4]) and at CYP3A4 [3] (setting [5]) were 17.1 nM and 2.8 nM, respectively.
For `CCOc1ccncc1NS(=O)(=O)c1ccccc1C(=O)NCCOc1ccccc1` [Example 219] the same measures were 32 nM, 27 nM, 108 nM and 40.3 nM.
Turning to `CN(Cc1ccc(F)c(F)c1)C(=O)c1ccccc1S(=O)(=O)Nc1cncc(F)c1` [Example 163, N-(3,4-difluorobenzyl)-2-{[(5-fluoropyridin-3-yl)amino]sulfonyl}-N-methylbenzamide], the IC50 at CYP3A4 [1] stood at 82 nM; at CYP3A4 [2] it was 49 nM. Besides, the results for the Ki at CYP3A4 [3] (setting [4]) and on CYP3A4 [3] (setting [5]) were 263 nM and 58 nM, respectively.
Take `COc1cncc(NS(=O)(=O)c2ccccc2C(=O)NCc2ccc(Cl)cc2F)c1` [Example 150, N-(4-chloro-2-fluorobenzyl)-2-{[(5-methoxypyridin-3-yl)amino]sulfonyl}benzamide]: the half-inhibitory concentration (IC50) at CYP3A4 [1] worked out at 15 nM; at CYP3A4 [2] it was 38 nM. The Ki was determined as 52.2 nM on CYP3A4 [3] (setting [4]) and 9.2 nM on CYP3A4 [3] (setting [5]).
In the same order, the values of `COc1cncc(NS(=O)(=O)c2ccccc2C(=O)NCc2ccc(C#N)cc2Cl)c1` [Example 203, N-(2-chloro-4-cyanobenzyl)-2-{[(5-methoxypyridin-3-yl)amino]sulfonyl}benzamide] are 12 nM, 5 nM, 101 nM and 25.8 nM.
In the same order, the values of `CCCCOCCCNC(=O)c1ccccc1S(=O)(=O)Nc1cccnc1` [Example 59, N-(3-butoxypropyl)-2-[(pyridin-3-ylamino)sulfonyl]benzamide] are 117 nM, 109 nM, 838 nM and 57.4 nM.
`Cc1ccncc1NS(=O)(=O)c1ccccc1C(=O)NC(C)(C)C` [Example 178, N-(tert-butyl)-2-{[(4-methylpyridin-3-yl)amino]sulfonyl}benzamide]: the IC50 on CYP3A4 [1] worked out at 97 nM; at CYP3A4 [2] it was 70 nM. The Ki at CYP3A4 [3] (setting [4]) is above 1000 nM; at CYP3A4 [3] (setting [5]), 106 nM.
For `COc1cncc(NS(=O)(=O)c2ccccc2C(=O)NCCc2ccccc2F)c1` [Example 258, N-[2-(2-fluorophenyl)ethyl]-2-{[(5-methoxypyridin-3-yl)amino]sulfonyl}benzamide] the same measures were 11 nM, 6 nM, 50.9 nM and 6.49 nM.
Take `COc1cncc(NS(=O)(=O)c2ccc(F)cc2C(=O)N2CCCC(C)C2)c1` (stereo not drawn) [Example 267, 4-fluoro-N-(5-methoxypyridin-3-yl)-2-[(3-methylpiperidin-1-yl)carbonyl]benzenesulfonamide]: the figures for the IC50 on CYP3A4 [1] and at CYP3A4 [2] were 216 nM and 120 nM, respectively. Also, the Ki on CYP3A4 [3] (setting [4]) was 270 nM; at CYP3A4 [3] (setting [5]) it was 43.2 nM.
